Experimental data published in ChEMBL document CHEMBL5712922, “Synergistic effects of type I PRMT and PARP inhibitors against non-small cell lung cancer cells” (Clin Epigenetics, 2021).
Counter-ions that a name gives are not always drawn. Residues, ends and D or L forms follow the SMILES beside them.

Each compound was assayed on A549 (assay: Antiproliferative against human A549 cells assessed as viable cells pretreated with MS023 for 24 hrs followed by compound addition at 10 uM measured after for 24 hrs relative to control). Conditions: A549, 24 h, read-out: Activity.

Row | Structure (SMILES) | viability at 10 µM
1 | CC(C)C[C@H](NC(=O)[C@H](Cc1ccccc1)NC(=O)[C@H](CCC(N)=O)NC(=O)[C@H](Cc1ccc(O)cc1)NC(=O)[C@H](C)NC(=O)CNC(=O)[C@H](CCCCN)NC(=O)[C@H](Cc1c[nH]c2ccccc12)NC(=O)[C@@H](NC(=O)[C@H](Cc1c[nH]c2ccccc12)NC(=O)[C@H](CCCCN)NC(=O)CNC(=O)[C@H](CC(N)=O)NC(=O)[C@H](CCC(=O)O)NC(=O)[C@H](Cc1c[nH]c2ccccc12)NC(=O)[C@@H](NC(=O)[C@H](Cc1c[nH]c2ccccc12)NC(=O)[C@H](CO)NC(=O)CNC(=O)[C@@H]1CCCN1C(=O)[C@H](Cc1c[nH]c2ccccc12)NC(=O)[C@H](CCC(N)=O)NC(=O)[C@H](Cc1ccccc1)NC(=O)CNC(=O)[C@@H](N)Cc1cnc[nH]1)[C@@H](C)O)[C@@H](C)O)C(=O)N[C@@H](CCCCN)C(=O)NCC(=O)NCC(=O)NCC(=O)NCC(=O)N[C@@H](CO)C(=O)N[C@@H](CCCNC(=N)N)C(=O)N[C@@H](CCCNC(=N)N)C(=O)N[C@@H](CCCNC(=N)N)C(=O)N[C@@H](CCCNC(=N)N)C(=O)N[C@@H](CCCNC(=N)N)C(=O)N[C@@H](CCCNC(=N)N)C(=O)N[C@@H](CCCNC(=N)N)C(=O)N[C@@H](CCCNC(=N)N)C(=O)N[C@@H](CCCNC(=N)N)C(=O)O (H-HGFQWPGSWTWENGKWTWKGAYQFLKGGGGSRRRRRRRRR-OH) | 54.2%
2 | COc1cc2c(cc1O)CC[C@@H]1[C@@H]2CC[C@]2(C)[C@@H](O)CC[C@@H]12 [2-METHOXYESTRADIOL] | 54.2%
3 | NC(=O)c1cccc(N)c1 [3-AMINOBENZAMIDE] | 54.2%
4 | CN(C)Cc1c(C(=O)NCCOc2ccc(C(=O)NO)cc2)oc2ccccc12 [ABEXINOSTAT] | 54.2%
5 | COc1cc(Nc2ncc3c(n2)-c2ccc(Cl)cc2C(c2c(F)cccc2OC)=NC3)ccc1C(=O)O [ALISERTIB] | 54.2%
6 | Cc1csc(-c2nnc(Nc3ccc(Oc4ncccc4-c4ccnc(N)n4)cc3)c3ccccc23)c1 [AMG-900] | 54.2%
7 | CCCCCCCCCCCCCCCc1cccc(O)c1C(=O)O [ANACARDIC ACID] | 54.2%
8 | COc1cc(OC)c2c(=O)[nH]c(-c3cc(C)c(OCCO)c(C)c3)nc2c1 [APABETALONE] | 54.2%
9 | CC(C)[C@H](C(=O)Nc1ccc(C(=O)NO)cc1)c1ccccc1 [AR-42] | 54.2%
10 | O=C(Nc1c[nH]nc1-c1nc2ccc(CN3CCOCC3)cc2[nH]1)NC1CC1 [AT-9283] | 54.2%
11 | Nc1ncn([C@@H]2O[C@H](CO)[C@@H](O)[C@H]2O)c(=O)n1 [AZACITIDINE] | 54.2%
12 | Cc1cc(Nc2nc(N[C@@H](C)c3ncc(F)cn3)ncc2Cl)[nH]n1 [AZD-1480] | 54.2%
13 | CCS(=O)(=O)N1CC(CC#N)(n2cc(-c3ncnc4[nH]ccc34)cn2)C1 [BARICITINIB] | 54.2%
14 | O=C(/C=C/c1cccc(S(=O)(=O)Nc2ccccc2)c1)NO [BELINOSTAT] | 54.2%
15 | Cc1sc2c(c1C)C(c1ccc(Cl)cc1)=N[C@@H](CC(=O)Nc1ccc(O)cc1)c1nnc(C)n1-2 [BIRABRESIB] | 54.2%
16 | Cc1cn([C@H]2O[C@@H](CO)[C@H](O)[C@H]2F)c(=O)[nH]c1=O [CLEVUDINE] | 54.2%
17 | C#Cc1cccc(Nc2ncnc3cc(OC)c(OCCCCCCC(=O)NO)cc23)c1 [CUDC-101] | 54.2%
18 | Cc1nc(N)sc1-c1ccnc(Nc2ccc(N3CCOCC3)cc2)n1 [CYC-116] | 54.2%
19 | Nc1ccn([C@@H]2O[C@H](CO)[C@@H](O)[C@@H]2O)c(=O)n1 [CYTARABINE] | 54.2%
20 | O=C(/C=C/c1ccc(CN(CCO)CCc2c[nH]c3ccccc23)cc1)NO [DACINOSTAT] | 54.2%
21 | CO[C@@H](C(=O)N1Cc2[nH]nc(NC(=O)c3ccc(N4CCN(C)CC4)cc3)c2C1)c1ccccc1 [DANUSERTIB] | 54.2%
22 | O=c1ccc2ccc(O)c(O)c2o1 [DAPHNETIN] | 54.2%
23 | CC[C@@](C)(Nc1ccnc(-c2c[nH]c3ncccc23)n1)C(=O)NCC(F)(F)F [DECERNOTINIB] | 54.2%
24 | Nc1ncn([C@H]2C[C@H](O)[C@@H](CO)O2)c(=O)n1 [DECITABINE] | 54.2%

Row | Structure (SMILES) | viability at 10 µM
25 | CCN(CCO)CCCOc1ccc2c(Nc3cc(CC(=O)Nc4cccc(F)c4)[nH]n3)ncnc2c1 [DEFOSBARASERTIB] | 54.2%
26 | Cn1cc(-c2ccc(S(=O)(=O)n3ccc(/C=C/C(=O)Nc4ccccc4N)c3)cc2)cn1 [DOMATINOSTAT] | 54.2%
27 | O=c1oc2c(O)c(O)cc3c(=O)oc4c(O)c(O)cc1c4c23 [ELLAGIC ACID] | 54.2%
28 | Cc1cc(Nc2cc(N3CCN(C)CC3)nc(/C=C/c3ccccc3)n2)n[nH]1 [ENMD-2076] | 54.2%
29 | CCN(CC)C(=O)/C(C#N)=C/c1cc(O)c(O)c([N+](=O)[O-])c1 [ENTACAPONE] | 54.2%
30 | Nc1ccccc1NC(=O)c1ccc(CNC(=O)OCc2cccnc2)cc1 [ENTINOSTAT] | 54.2%
31 | Cc1cnc(Nc2ccc(OCCN3CCCC3)cc2)nc1Nc1cccc(S(=O)(=O)NC(C)(C)C)c1 [FEDRATINIB] | 54.2%
32 | O=C(Nc1nc2cccc(-c3ccc(CN4CCS(=O)(=O)CC4)cc3)n2n1)C1CC1 [FILGOTINIB] | 54.2%
33 | COc1ccc(-c2nc(N3CCOCC3)c3sc(CN(C)c4ncc(C(=O)NO)cn4)cc3n2)cn1 [FIMEPINOSTAT] | 54.2%
34 | Cc1cc(Nc2cc(CN3CCOCC3)c3nc(C)c(Cc4ccc(Cl)cc4F)n3n2)n[nH]1 [GANDOTINIB] | 54.2%
35 | Nc1ccn([C@@H]2O[C@H](CO)[C@@H](O)C2(F)F)c(=O)n1 [GEMCITABINE] | 54.2%
36 | CCN(CC)Cc1ccc2cc(COC(=O)Nc3ccc(C(=O)NO)cc3)ccc2c1 [GIVINOSTAT] | 54.2%
37 | CCn1cc(-c2ccnc3[nH]c(-c4cccc(CN(C)C)c4)cc23)c(-c2ccc(NC(=O)N(C)C)cc2)n1 [GSK-1070916] | 54.2%
38 | CCS(=O)(=O)Nc1ccc2c(c1)/C(=C(/Nc1ccc(CN3CCCCC3)cc1)c1ccccc1)C(=O)N2 [HESPERADIN] | 54.2%
39 | Nc1nc(Nc2ccc(S(N)(=O)=O)cc2)nn1C(=O)c1c(F)cccc1F [JNJ-7706621] | 54.2%
40 | O=C(c1ccc(/C=C/c2n[nH]c3ccccc23)cc1)N1CCNCC1 [KW-2449] | 54.2%
41 | Nc1nc(OCc2cc(Br)cs2)c2[nH]cnc2n1 [LOMEGUATRIB] | 54.2%
42 | CO[C@@]12[C@H](COC(N)=O)C3=C(C(=O)C(C)=C(N)C3=O)N1C[C@@H]1N[C@@H]12 [MITOMYCIN] | 54.2%
43 | NC(=O)c1ncn([C@@H]2O[C@H](CO)[C@@H](O)[C@H]2O)c1O [MIZORIBINE] | 54.2%
44 | O=C(O)[C@]1(Cc2cccc(Nc3nccs3)n2)CC[C@@H](Oc2cccc(Cl)c2F)CC1 [MK-5108] | 54.2%
45 | O=C(O)c1ccc(Nc2ncc3c(n2)-c2ccc(Cl)cc2C(c2c(F)cccc2F)=NC3)cc1 [MLN-8054] | 54.2%
46 | Nc1ccccc1NC(=O)c1ccc(CNc2nccc(-c3cccnc3)n2)cc1 [MOCETINOSTAT] | 54.2%
47 | CCNC(=O)C[C@@H]1N=C(c2ccc(Cl)cc2)c2cc(OC)ccc2-n2c(C)nnc21 [MOLIBRESIB] | 54.2%
48 | N#CCNC(=O)c1ccc(-c2ccnc(Nc3ccc(N4CCOCC4)cc3)n2)cc1 [MOMELOTINIB] | 54.2%

Row | Structure (SMILES) | viability at 10 µM
49 | CCCCN(Cc1ccc(C(=O)NO)cc1)C(=O)Nc1ccccc1 [NEXTURASTAT A] | 54.2%
50 | CCn1cc(C(=O)O)c(=O)c2cc(F)c(N3CCNCC3)cc21 [NORFLOXACIN] | 54.2%
51 | CNS(=O)(=O)C[C@H]1CC[C@H](N(C)c2[nH]cnc3nccc2-3)CC1 [OCLACITINIB] | 54.2%
52 | CC1COc2c(N3CCN(C)CC3)c(F)cc3c(=O)c(C(=O)O)cn1c23 (stereo unspecified) [OFLOXACIN] | 54.2%
53 | C1=N/C2=N/c3ccc(OCCN4CCCC4)c(c3)COC/C=C/COCc3cccc(c3)C(=C1)N2 [PACRITINIB] | 54.2%
54 | Cc1[nH]c2ccccc2c1CCNCc1ccc(/C=C/C(=O)NO)cc1 [PANOBINOSTAT] | 54.2%
55 | CCc1cccc(CC)c1NC(=O)N1Cc2[nH]nc(NC(=O)c3ccc(N4CCN(C)CC4)cc3)c2C1 [PHA-680632] | 54.2%
56 | CC(C)N(C[C@H]1O[C@@H](n2cnc3c(N)ncnc32)[C@H](O)[C@@H]1O)[C@H]1C[C@@H](CCc2nc3cc(C(C)(C)C)ccc3[nH]2)C1 [PINOMETOSTAT] | 54.2%
57 | COc1cccc2c1C(=O)c1c(O)c3c(c(O)c1C2=O)C[C@@](O)(C(=O)CO)C[C@@H]3O[C@H]1C[C@H](N)[C@H](O[C@@H]2CCCCO2)[C@H](C)O1 [PIRARUBICIN] | 54.2%
58 | CCCCc1nc2cc(/C=C/C(=O)NO)ccc2n1CCN(CC)CC [PRACINOSTAT] | 54.2%
59 | CCN(CC)CCNC(=O)c1ccc(N)cc1 [PROCAINAMIDE HYDROCHLORIDE] | 54.2%
60 | O=c1c(O)c(-c2ccc(O)c(O)c2)oc2cc(O)cc(O)c12 [QUERCETIN] | 54.2%
61 | Cn1cc(CNCC2CCN(c3ncc(C(=O)NO)cn3)CC2)c2ccccc21 [QUISINOSTAT HYDROCHLORIDE] | 54.2%
62 | CN(C)Cc1ccc(S(=O)(=O)n2ccc(/C=C/C(=O)NO)c2)cc1 [RESMINOSTAT] | 54.2%
63 | Oc1ccc(/C=C/c2cc(O)cc(O)c2)cc1 [RESVERATROL] | 54.2%
64 | O=C(CCCCCCNC(=O)c1cnc(N(c2ccccc2)c2ccccc2)nc1)NO [RICOLINOSTAT] | 54.2%
65 | Cc1nc(C(=O)NCC(=O)O)c(O)c2ccc(Oc3ccccc3)cc12 [ROXADUSTAT] | 54.2%
66 | N#CC[C@H](C1CCCC1)n1cc(-c2ncnc3[nH]ccc23)cn1 [RUXOLITINIB] | 54.2%
67 | CN1CCC(CNc2ccc3ncc(-c4cccc(OC(F)(F)F)c4)n3n2)CC1 [SGI-1776] | 54.2%
68 | CC(NC(=O)c1ccccc1/N=C/c1c(O)ccc2ccccc12)c1ccccc1 (stereo unspecified) [SIRTINOL] | 54.2%
69 | O=C(Nc1cccc(Cl)c1)Nc1ncc(CCNc2ncnc3ccsc23)s1 [SNS-314 MESYLATE] | 54.2%
70 | O=C(O)CCCc1ccccc1 [SODIUM PHENYLBUTYRATE] | 54.2%
71 | CC(=O)Nc1ccc(C(=O)Nc2ccccc2N)cc1 [TACEDINALINE] | 54.2%
